Assay results as given in patent US20250074981A1, “COMBINATION THERAPY WITH DEXAMETHASONE AND TUMOR-SPECIFIC T CELL ENGAGING MULTI-SPECIFIC ANTIBODIES FOR TREATING CANCER” (MEMORIAL SLOAN-KETTERING CANCER CENTER, priority 2021, published 2025).
Read-outs that look alike come from different tables or passages of the source.

Experiments:
[1] = test system: GD2(+) osteosarcoma PDX; assay: Bioluminescence imaging of Luc(+) GD2-EATs in GD2(+) osteosarcoma PDX; assay type: in vivo, mice; conditions: GD2-EATs plus HD dexamethasone
Experimental: (§1) T cells isolated from peripheral blood were stimulated with Dynabeads™ Human T-Activator CD3/CD28 for 24 hours. T cells were transduced with retroviral constructs containing tdTomato and click beetle red luciferase in RetroNectin-coated 6-well plates in the presence of IL-2 (100 IU/ml) and protamine sulfate ([…]). Transduced T cells were cultured for 8 days before being used in animal experiments.
(§2) Mice were anesthetized and imaged after intravenous injection of 3 mg of D-luciferin (Gold Biotechnology, St. Louis, MO) on different days post T cell injection. Images were acquired using IVIS Spectrum CT In Vivo Imaging System (Caliper Life Sciences, Waltham, MA). Bioluminescence images were overlaid with photographs, and regions of interest (ROI) were drawn based on the location and contour of tumor using Living image 2.60 (Xenogen, Alameda, CA). The total counts of photons (photon/s) were obtained. Bioluminescence signals (total flux, photon/s) before T cell injection were used as baselines.

[2] = test system: M37 breast cancer PDX; assay: In vivo anti-tumor effect in M37 breast cancer PDX; parameters: species or system mice; conditions: low and intermediate dosage of dexamethasone; due to diarrhea from C. difficile infection
Experimental: Increasing dosage of dexamethasone was tested as a premedication administered i.p. before the i.v. injection of HER2×CD3-BsAb plus activated human T cells in mice xenografted s.c. with M37 breast cancer PDX using the schedule detailed in FIG. 9A. The three dosages of intraperitoneal dexamethasone were 2 mg/kg (Dex 2), 8 mg/kg (Dex 8) and 32 mg/kg (Dex 32) once a week×3 weeks.

[3] = test system: neuroblastoma PDXs; assay: Flow cytometry of tumor infiltrating myeloid cells and lymphocytes in neuroblastoma PDXs; assay type: in vivo, mice; conditions: day 10 post-treatment
Description: (§3) For blood and tumor samples from mice, the following antibodies were purchased from Biolegend: anti-human CD45-APC (HI30), anti-human CD3-Percp/Cy5.5 (SK7), anti-human CD8-FITC, anti-human CD4-PE/Cy7, anti-mouse CD45-APC, anti-mouse CD45-Brilliant Violet 711™ (30-F11), anti-mouse CD11b-Brilliant Violet 570™ (M1/70), anti-mouse Ly6G-FITC, anti-mouse Ly6C-PerCP/Cy5.5, and anti-mouse F4/80-PE/Cy7. Statistical analysis
(§4) Flow cytometry analysis. For flow cytometry analyses of blood and tumor samples from mice, the following antibodies were purchased from Biolegend: anti-human CD45-APC (HI30), anti-human CD3-Percp/Cy5.5 (SK7), anti-human CD8-FITC, anti-human CD4-PE/Cy7, anti-mouse CD45-Brilliant Violet 711™ (30-F11), anti-mouse CD11b-Brilliant Violet 570™ (M1/70), anti-mouse Ly6G-FITC, anti-mouse Ly6C-PerCP/Cy5.5, and anti-mouse F4/80-PE.

[4] = test system: osteosarcoma cell line 143B xenografts; assay type: in vivo, mice; conditions: day 60 post-treatment, agents added to GD2-EATs, vs GD2-EATs alone
Description: as §3, §4

[5] = test system: osteosarcoma cell line 143B xenografts; assay type: in vivo, mice; conditions: agents added to GD2-EATs, vs GD2-EATs alone
Experimental: Immunohistochemistry (IHC) and immunofluorescence (IF) staining were performed at the MSK Molecular Cytology Core Facility using Discovery XT processor (Ventana Medical Systems, Oro Valley, AZ) as described by Xu H, et al., Cancer Immunol Res 3: 266-277 (2015), the entirety of which is incorporated herein by reference. Tumor samples were fixed and embedded in paraffin. Anti-human CD45, anti-human CD3, and anti-mouse CD68 antibodies were used, which was followed by biotinylated secondary antibody. The detection was performed using a DAB detection kit (Ventana Medical Systems, Oro Valley, AZ) or Alexa Fluor™ 488 or 568 Tyramide Reagent (Invitrogen, Carlsbad, CA). IHC images were captured from tumor sections using a Nikon ECLIPSE Ni-U microscope and NIS-Elements 4.0 imaging software. IF images were captured using Leica Inverted Confocal SP8 and processed with Imaris (Bitplane, Zurich, Switzerland). Antigen positive cells were counted with Qupath 0.1.2.
Immunohistochemistry and immunofluorescence staining. Immunohistochemistry (TIC) staining were performed at the MSK Molecular Cytology Core Facility using Discovery XT processor (Ventana Medical Systems). Tumor samples were fixed and embedded in paraffin. […] Antigen positive cells were counted with Qupath 0.1.2 or using positive pixel count analysis.

[6] = test system: HER2(+) osteosarcoma PDXs, HGSOS; assay: Bioluminescence imaging of Luc(+) HER2-EATs in HER2(+) osteosarcoma PDX (HGSOS / HGSOC1); assay type: in vivo, mice; conditions: control HER2-EATs
Experimental: as §1, §2
T cell transduction. T cells isolated from peripheral blood were stimulated with Dynabeads™ Human T-Activator CD3/CD28 for 24 hours. T cells were transduced with retroviral constructs containing tdTomato and click beetle red luciferase in RetroNectin-coated 6-well plates in the presence of IL-2 (100 IU/ml) and protamine sulfate (4 μg/mL). […]

[7] = test system: hVEGF; assay: Serum VEGF levels by Quantikine ELISA, HGSOC1 ovarian cancer PDX mice; assay type: in vivo, human; conditions: day 5 post-treatment, 48 hours after 2nd dose; with HER2-EATs
Experimental: Concentration of VEGF serum levels were measured using a commercially available enzyme-linked immunosorbent assay (ELISA) kit (R&D Systems, Minneapolis, MN) according to the manufacturer's instruction. Briefly, serum samples and standards were incubated for 2 hours in a microplate pre-coated with human or murine anti-VEGF monoclonal antibodies. After washing three times, enzyme-linked anti-VEGF polyclonal antibodies were added. Unbound antibodies were removed by washing. […] All samples were run in triplicate, and a standard curve was established for each assay. The sensitivity of the assay was <9.0 pg/ml. Inter- and intra-assay variations were <10%.
Measurement of serum VEGF levels. Serum VEGF levels in murine plasma were measured using Quantikine enzyme-linked immunosorbent assay (ELISA) kit (R and D Systems Cat #DVE00, RRID:AB_2800364) according to the manufacturer's instruction. […] All samples were run in triplicate, and a standard curve was established for each assay.

[8] = test system: TH1 cell cytokines (IL-2, IFN-γ, and TNF-α); assay: TH1 cell cytokine levels after GD2-EATs with VEGF blockades, neuroblastoma PDX mice; assay type: in vivo; conditions: 2 hours after the first dose of GD2-EATs; combination group
Experimental: Cytokine release assays. EAT-induced human cytokine release was analyzed in vitro and in vivo. Human Th1 cell released cytokines were analyzed by LEGENDplex™ Human Th1 Panel (Biolegend, Cat #741035). Five T cell cytokines including IL-2, IL-6, IL-10, IFN-γ and TNF-α were analyzed using mouse serum after treatment with EATs with or without VEGF blockade.

[9] = test system: GD2(+) neuroblastoma PDX; assay: Bioluminescence imaging of Luc(+) GD2-EATs in GD2(+) neuroblastoma PDX; assay type: in vivo, mice
Experimental: T cell transduction. T cells isolated from peripheral blood were stimulated with Dynabeads™ Human T-Activator CD3/CD28 for 24 hours. T cells were transduced with retroviral constructs containing tdTomato and click beetle red luciferase in RetroNectin-coated 6-well plates in the presence of IL-2 (100 IU/ml) and protamine sulfate (4 μg/mL). Transduced T cells were cultured for 8 days before being used in animal experiments.
Bioluminescence imaging. Mice were anesthetized and imaged after intravenous injection of 3 mg of D-luciferin (Gold Biotechnology) on different days post T cell injection. Images were acquired using IVIS Spectrum CT In vivo Imaging System (Caliper Life Sciences). Bioluminescence images were overlaid with photographs, and regions of interest (ROI) were drawn based on the location and contour of tumor using Living image 2.60 (Xenogen). The total counts of photons (photon/s) were obtained. Bioluminescence signals (total flux, photon/s) before T cell injection were used as baselines.

[10] = test system: neuroblastoma patient-derived xenografts; assay: IHC positive pixel count analysis of CD3, CD4, CD8 T cells in neuroblastoma PDXs; assay type: in vivo, mice; conditions: day 10 post-treatment; added to GD2-EATs
Experimental: (§5) Immunohistochemistry and immunofluorescence staining. Immunohistochemistry (TIC) staining were performed at the MSK Molecular Cytology Core Facility using Discovery XT processor (Ventana Medical Systems). Tumor samples were fixed and embedded in paraffin. Anti-human CD45, anti-human CD3, anti-human CD4, anti-human CD8, anti-mouse CD31 antibodies were used, which was followed by biotinylated secondary antibody. The detection was performed using a DAB detection kit (Ventana Medical Systems) or Alexa Fluor™ 488 or 568 Tyramide Reagent (Invitrogen). IHC images were captured from tumor sections using a Nikon ECLIPSE Ni-U microscope and NIS-Elements 4.0 imaging software. Antigen positive cells were counted with Qupath 0.1.2 or using positive pixel count analysis.
(§6) Positive Pixel Count Analysis. IHC slides were scanned (Aperio ScanScope XT) and analyzed by comparing positive pixel counts (Aperio Technologies). For analyzing tumor infiltrating lymphocytes, the largest area of intact tumor tissue was included, and oblique sections were avoided. Each slide was visually inspected to ensure specificity and sensitivity of antibody staining. After positive pixel count analysis was run, analyzed slides were examined to confirm that positively identified pixels were consistent with lymphocyte staining and not background staining. Percentages were calculated as the total number of positive pixels divided by the total number of pixels (% positive pixels/total pixels).

[11] = test system: red blood cell, leukocyte, or platelet counts; assay: Complete blood count after GD2-EATs with VEGF blockades, neuroblastoma PDX mice; assay type: in vivo; conditions: GD2-EATs following bevacizumab or DC101
Experimental: To test if VEGF blockades affected complete blood cell counts (CBC) or frequencies of tumor infiltrating myeloid cells (TIMs), CBC and flow cytometry analysis of tumors were done after the first and third doses of GD2-EATs following bevacizumab or DC101. […] The effect on TIMs was also analyzed using flow cytometry of tumors. […] TIM analysis in a second tumor model was repeated using 143B CDXs where blood and tumors were analyzed on day 5 and day 60 post treatment, respectively.

[12] = test system: tumor microvasculature; assay: IHC of intratumoral blood vessels (mCD31) and HIF-1α in neuroblastoma PDXs; assay type: in vivo, mice
Experimental: as §5
as §6, with “Each slide was visually inspected to ensure specificity and sensitivity of antibody staining.” left out

[13] = test system: osteosarcoma cell line 143B xenografts; assay: In vivo anti-tumor effect against osteosarcoma cell line 143B xenografts
Experimental: All animal procedures were performed in compliance with Memorial Sloan Kettering Cancer Center's institutional Animal Care and Use Committee (IACUC) guidelines. BALB/c Rag2^−/−IL-2Rγc^−/− (BRG) mice were used in this study. Target antigen (+) patient-derived xenograft (PDX) was established from fresh surgical specimens with MSKCC IRB approval. Tumor cells in Matrigel (Corning Corp, Corning, NY) were implanted subcutaneously on the right flank of each mouse. Tumor size was measured using handheld Peira TM900 imaging device (Piera, Brussels, BE). Tumor growth curves and overall survival was analyzed, and the overall survival was defined as the time from start of treatment to when tumor volume reached 2000 mm^3. To define the well-being of mice, CBC analyses, changes in body weight, behavior and physical appearance were monitored. All animal experiments were repeated twice more with different donor's T cells to ensure that the results were reliable.
In vivo anti-tumor effect was compared by area under curve (AUC) and survival curves, which were calculated. Differences between samples indicated in the figures were tested for statistical significance by two-tailed Student's t-test for two sets of data while one-way ANOVA with Tukey's post hoc test was used to among three or more sets of data. […]
Therapeutic study with mouse xenograft model All animal procedures were performed in compliance with Memorial Sloan Kettering Cancer Center's institutional Animal Care and Use Committee (IACUC) guidelines. […] Treatment was initiated after tumors were established, average tumor volume of 100 mm^3 when measured using TM900 scanner (Piera, Brussels, BE). […] Tumor growth curves and overall survival were analyzed, and the overall survival was defined as the time from start of treatment to when tumor volume reached 2000 mm^3. To define the well-being of mice, CBC analyses, changes in body weight, behavior and physical appearance were monitored. […]
Statistical analysis. […] Area under curves (AUCs) of tumor growth were calculated and compared among groups. […]

[14] = agent added to GD2-EATs, compared to GD2-EATs alone

C[C@@H]1C[C@H]2[C@@H]3CCC4=CC(=O)C=C[C@]4(C)[C@@]3(F)[C@@H](O)C[C@]2(C)[C@@]1(O)C(=O)CO [dexamethasone]
mean signal intensity on day 5 vs GD2-EATs alone [1]: more than 10 times
weight loss [2]: suffered weight loss around day 30 post treatment

bevacizumab: anti-human VEGF (hVEGF) antibody bevacizumab
frequencies of intratumoral hCD45(+) T cells [3]: much more pronounced
tumor infiltrating hCD45(+) and CD8(+) T cells (TILs) [4]: significantly increased
tumor infiltrating hCD45(+) and CD8(+) T cells (TILs) ([4]; listed as anti-VEGF): increased frequencies of tumor infiltrating hCD45(+) T cells and CD8(+) T cells
CD3+ T cell infiltration / count in tumors (IHC) [5]: significantly increased
CD3+ T cell infiltration / count in tumors (IHC) ([5]; listed as anti-VEGF): significantly increased T cell count
Fold increase in BLI (AUC-BLI) [6]: 7.5
serum h-VEGF levels [7]: significantly reduced serum h-VEGF levels
TH1 cell cytokines (IL-2, IFN-γ, and TNF-α) [8]: significantly lower
TIL persistence ([9]; added to GD2-EATs): significantly prolonging TIL persistence
Fold increase in BLI (AUC-BLI) ([9]; neuroblastoma PDX, control GD2-EATs): 2.8
CD4(+) TIL increase compared to GD2-EATs alone [10]: 1.1 fold
CD8(+) TIL increase compared to GD2-EATs alone [10]: 5 fold
increase of CD3(+) TILs compared to GD2-EATs alone [10]: 3 fold
red blood cell, leukocyte, or platelet counts [11]: no significant changes
high endothelial venules (HEVs) in tumors ([12]; combined with GD2-EATs): induced high endothelial venules (HEVs) in tumors
mCD31(+) blood vessels ([12]; day 10 post-treatment): significant increase in mCD31(+) blood vessels
anti-tumor effect ([13]; VEGF blockade with unarmed T cells): did not show any anti-tumor effect
survival [13, 14]: prolonging mouse survival
tumor control / anti-tumor response [13, 14]: significantly improved
